Results taken from PubChem BioAssay (NCI).
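How tested: cells in 96-well plates exposed to compound for 48 hours at five concentrations. At the TGI there is no net growth.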

Assays:
Assay in all cases: NCI tumour cell line growth inhibition, 48 h
786-0 renal = test system: 786-0 renal
HS 578T breast = test system: HS 578T breast
MCF7 breast = test system: MCF7 breast
HOP-62 NSCLC = test system: HOP-62 NSCLC
T-47D breast = test system: T-47D breast
OVCAR-3 ovarian = test system: OVCAR-3 ovarian
A498 renal = test system: A498 renal
PC-3 prostate = test system: PC-3 prostate
MOLT-4 leukemia = test system: MOLT-4 leukemia
K-562 leukemia = test system: K-562 leukemia
CCRF-CEM leukemia = test system: CCRF-CEM leukemia
IGROV1 ovarian = test system: IGROV1 ovarian
HT29 colon = test system: HT29 colon
UACC-257 melanoma = test system: UACC-257 melanoma
SF-268 CNS = test system: SF-268 CNS
SF-539 CNS = test system: SF-539 CNS
U251 CNS = test system: U251 CNS
RXF 393 renal = test system: RXF 393 renal
NCI-H226 lung = test system: NCI-H226 lung
MDA-MB-435 = test system: MDA-MB-435
SNB-19 CNS = test system: SNB-19 CNS
OVCAR-8 ovarian = test system: OVCAR-8 ovarian
MALME-3M melanoma = test system: MALME-3M melanoma
HOP-92 NSCLC = test system: HOP-92 NSCLC
NCI-H23 lung = test system: NCI-H23 lung
MDA-MB-231 breast = test system: MDA-MB-231 breast
UO-31 renal = test system: UO-31 renal
NCI-H522 lung = test system: NCI-H522 lung
HCT-15 colon = test system: HCT-15 colon
SR leukemia = test system: SR leukemia
COLO 205 colon = test system: COLO 205 colon
SNB-75 CNS = test system: SNB-75 CNS
SK-MEL-2 melanoma = test system: SK-MEL-2 melanoma
NCI/ADR-RES ovarian = test system: NCI/ADR-RES ovarian
HCC-2998 colon = test system: HCC-2998 colon
DU-145 prostate = test system: DU-145 prostate
TK-10 renal = test system: TK-10 renal
SK-MEL-28 melanoma = test system: SK-MEL-28 melanoma
SK-OV-3 ovarian = test system: SK-OV-3 ovarian
HL-60(TB) leukemia = test system: HL-60(TB) leukemia
SW-620 colon = test system: SW-620 colon
UACC-62 melanoma = test system: UACC-62 melanoma
RPMI-8226 leukemia = test system: RPMI-8226 leukemia
MDA-N = test system: MDA-N
CAKI-1 renal = test system: CAKI-1 renal
BT-549 breast = test system: BT-549 breast
SK-MEL-5 melanoma = test system: SK-MEL-5 melanoma
EKVX NSCLC = test system: EKVX NSCLC
SF-295 CNS = test system: SF-295 CNS
NCI-H460 lung = test system: NCI-H460 lung
ACHN renal = test system: ACHN renal
A549 NSCLC = test system: A549 NSCLC
SN12C renal = test system: SN12C renal
LOX IMVI melanoma = test system: LOX IMVI melanoma
OVCAR-4 ovarian = test system: OVCAR-4 ovarian
KM12 colon = test system: KM12 colon
HCT-116 colon = test system: HCT-116 colon
M14 melanoma = test system: M14 melanoma
OVCAR-5 ovarian = test system: OVCAR-5 ovarian

Measured: TGI

CN(C)Cc1cc(N=Nc2c(Cl)cccc2Cl)ccc1O
52.1 µM: SK-MEL-5 melanoma
not listed: M14 melanoma | OVCAR-5 ovarian
> 100 µM: all other assays above

O=c1oc2ccccc2cc1-c1ccc([N+](=O)[O-])cc1
> 51.9 µM: U251 CNS
> 75.6 µM: SNB-19 CNS
> 100 µM: all other assays above

COc1ccc(/C=C/C(=N/NC(=O)N/N=C(/C=C/c2ccc(OC)cc2)C(C)C)C(C)C)cc1
> 100 µM: all assays above

O=C(c1c(F)c(F)c(F)c(F)c1F)n1c(=O)[nH]c2ccccc21
25.2 µM: UO-31 renal
17.5 µM: SK-MEL-2 melanoma
47.4 µM: 786-0 renal
8.8 µM: SR leukemia
38.8 µM: HS 578T breast
37.5 µM: BT-549 breast
27.2 µM: NCI-H460 lung
58.1 µM: NCI/ADR-RES ovarian
29.3 µM: EKVX NSCLC
24.2 µM: IGROV1 ovarian
28.3 µM: SK-MEL-28 melanoma | SN12C renal
25.5 µM: U251 CNS | UACC-62 melanoma
21.9 µM: MDA-MB-435
19.7 µM: UACC-257 melanoma
26.7 µM: SF-539 CNS
18.8 µM: CCRF-CEM leukemia
32.5 µM: A549 NSCLC
11.3 µM: CAKI-1 renal
11.4 µM: HOP-92 NSCLC | NCI-H23 lung
31.6 µM: HOP-62 NSCLC
18.5 µM: TK-10 renal
15.6 µM: HCT-15 colon
25.7 µM: COLO 205 colon
18 µM: HT29 colon
25.1 µM: RPMI-8226 leukemia
16.8 µM: MCF7 breast
27 µM: OVCAR-8 ovarian
30.6 µM: SF-295 CNS
17.6 µM: T-47D breast
12.2 µM: HCT-116 colon
33.6 µM: A498 renal
16.1 µM: SW-620 colon
14.9 µM: K-562 leukemia | LOX IMVI melanoma
20.5 µM: MDA-N
11.6 µM: HCC-2998 colon
28.2 µM: SNB-19 CNS
5.15 µM: KM12 colon
26.8 µM: MDA-MB-231 breast
5.05 µM: HL-60(TB) leukemia
31.8 µM: OVCAR-4 ovarian
33.4 µM: NCI-H226 lung
13.6 µM: NCI-H522 lung
28.7 µM: SK-MEL-5 melanoma
29.6 µM: DU-145 prostate
34.1 µM: SF-268 CNS
22 µM: RXF 393 renal
22.1 µM: M14 melanoma
21.8 µM: PC-3 prostate
28.5 µM: MALME-3M melanoma
24 µM: OVCAR-3 ovarian
18.7 µM: MOLT-4 leukemia
30.5 µM: SNB-75 CNS
29.7 µM: all other assays above
